Data published in PubChem BioAssay (NCI).
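GI50 is the concentration that inhibits growth by half. TGI: total growth inhibition.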

Tests used:
Test in all cases: NCI-60 cell line screen, 384-well format
CCRF-CEM leukemia = system: CCRF-CEM leukemia
HS 578T breast = system: HS 578T breast
IGROV1 ovarian = system: IGROV1 ovarian
MCF7 breast = system: MCF7 breast
SN12C renal = system: SN12C renal
HCT-116 colon = system: HCT-116 colon
PC-3 prostate = system: PC-3 prostate
A498 renal = system: A498 renal
DU-145 prostate = system: DU-145 prostate
MALME-3M melanoma = system: MALME-3M melanoma
M14 melanoma = system: M14 melanoma
SW-620 colon = system: SW-620 colon
OVCAR-3 ovarian = system: OVCAR-3 ovarian

In the case of `CCCS(=O)(=O)Nc1ccc(F)c(C(=O)c2c[nH]c3ncc(-c4ccc(Cl)cc4)cc23)c1F`, the GI50 (CCRF-CEM leukemia) is reported as 4.15 µM, the TGI (CCRF-CEM leukemia) is reported as 6.41 µM and the GI50 (HS 578T breast) is reported as 2520 nM. For the same compound, the TGI (HS 578T breast) was 6.2 µM, the GI50 (IGROV1 ovarian) was 1870 nM and the TGI (IGROV1 ovarian) was 8.76 µM. It also gave a GI50 (MCF7 breast) of 6.82 µM, a TGI (MCF7 breast) of 13.3 µM and a GI50 (SN12C renal) of 8.1 µM. It also gave a TGI (SN12C renal) of 22.5 µM, a GI50 (HCT-116 colon) of 3.85 µM and a TGI (HCT-116 colon) of 11.5 µM. The GI50 (PC-3 prostate) was 8.55 µM, the TGI (PC-3 prostate) was 21.3 µM and the GI50 (A498 renal) was 2960 nM. For the same compound, the TGI (A498 renal) was 9.4 µM, the GI50 (DU-145 prostate) was 5.88 µM and the TGI (DU-145 prostate) was 18.6 µM. The GI50 (MALME-3M melanoma) was 24.2 nM, the TGI (MALME-3M melanoma) was 89.7 nM and the GI50 (M14 melanoma) was 30.5 nM. It also gave a TGI (M14 melanoma) of 321 nM, a GI50 (SW-620 colon) of 4.61 µM and a TGI (SW-620 colon) of 23.3 µM. It also gave a GI50 (OVCAR-3 ovarian) of 8.19 µM and a TGI (OVCAR-3 ovarian) of 16.1 µM.
